# Experimental data taken from patent publication US20180021361A1, “COMBINATION DRUG TREATMENT FOR HEPATITIS C INFECTION” (JANSSEN PHARMACEUTICALS, INC., priority 2016, published 2018).
# Columns and labels:
# [1] = PK of single agents versus fixed dose combinations, single dose in healthy volunteers; format: in vivo, human; conditions: for t1/2term: mean ± SD
# Description: SMV (100 mg), ODV (50 mg), and Compound (III) (800 mg) were administered as three different formulations or together as single doses in vivo to healthy volunteers. The arms of the study included: • Arm 1 (Reference Arm): Single oral doses of single agents, one SMV 100-mg capsule, one ODV 50-mg tablet as granule layered solid dispersion with copovidone and poloxamers, and two Compound (III) 400-mg tablets, administered together. • Arm 2: Single oral dose of fixed dose combination (FDC02): SMV 100 mg+ODV 50 mg as a spray dried solid dispersion with HPMC-AS L in a ratio ODV/HPMC-AS L 1/1 w/w+Compound (III) 800 mg • Arm 3: Single oral dose of fixed dose combination (FDC04): SMV 100 mg+ODV 50 mg as a spray dried solid dispersion with HPMC-AS L in a ratio ODV/HPMC-AS L 1/3 w/w+Compound (III) 800 mg • Arm 4: Single oral dose of fixed dose combination (FDC01): SMV 100 mg+ODV 50 mg as a spray dried solid dispersion with copovidone and poloxamers+Compound (III) 800 mg
# PK parameters, including Cmax, tmax, AUClast, and AUC∞ were measured for Compound (III), ODV, SMV, and metabolites Compound A-I and Compound A-3 for each Arm of the study. Arms that included fixed dose combinations (FDC) (Arm 2, Arm 3, and Arm 4) were then compared to a single oral dose (Arm 1, the reference Arm). Table 9, Table 10, Table 11, Table 12 and Table 13 display relevant PK parameters and FIG. 9, FIG. 10, FIG. 11, FIG. 12, and FIG. 13 depict the plasma concentration over time of SMV, ODV, Compound A-1, and Compound A-3 for each Arm of the study.
# [2] = molecular target: P-gp (Homo sapiens, UniProt P08183); conditions: efflux transporter; cited from earlier work
# P-gp, sequence (P08183 whole entry): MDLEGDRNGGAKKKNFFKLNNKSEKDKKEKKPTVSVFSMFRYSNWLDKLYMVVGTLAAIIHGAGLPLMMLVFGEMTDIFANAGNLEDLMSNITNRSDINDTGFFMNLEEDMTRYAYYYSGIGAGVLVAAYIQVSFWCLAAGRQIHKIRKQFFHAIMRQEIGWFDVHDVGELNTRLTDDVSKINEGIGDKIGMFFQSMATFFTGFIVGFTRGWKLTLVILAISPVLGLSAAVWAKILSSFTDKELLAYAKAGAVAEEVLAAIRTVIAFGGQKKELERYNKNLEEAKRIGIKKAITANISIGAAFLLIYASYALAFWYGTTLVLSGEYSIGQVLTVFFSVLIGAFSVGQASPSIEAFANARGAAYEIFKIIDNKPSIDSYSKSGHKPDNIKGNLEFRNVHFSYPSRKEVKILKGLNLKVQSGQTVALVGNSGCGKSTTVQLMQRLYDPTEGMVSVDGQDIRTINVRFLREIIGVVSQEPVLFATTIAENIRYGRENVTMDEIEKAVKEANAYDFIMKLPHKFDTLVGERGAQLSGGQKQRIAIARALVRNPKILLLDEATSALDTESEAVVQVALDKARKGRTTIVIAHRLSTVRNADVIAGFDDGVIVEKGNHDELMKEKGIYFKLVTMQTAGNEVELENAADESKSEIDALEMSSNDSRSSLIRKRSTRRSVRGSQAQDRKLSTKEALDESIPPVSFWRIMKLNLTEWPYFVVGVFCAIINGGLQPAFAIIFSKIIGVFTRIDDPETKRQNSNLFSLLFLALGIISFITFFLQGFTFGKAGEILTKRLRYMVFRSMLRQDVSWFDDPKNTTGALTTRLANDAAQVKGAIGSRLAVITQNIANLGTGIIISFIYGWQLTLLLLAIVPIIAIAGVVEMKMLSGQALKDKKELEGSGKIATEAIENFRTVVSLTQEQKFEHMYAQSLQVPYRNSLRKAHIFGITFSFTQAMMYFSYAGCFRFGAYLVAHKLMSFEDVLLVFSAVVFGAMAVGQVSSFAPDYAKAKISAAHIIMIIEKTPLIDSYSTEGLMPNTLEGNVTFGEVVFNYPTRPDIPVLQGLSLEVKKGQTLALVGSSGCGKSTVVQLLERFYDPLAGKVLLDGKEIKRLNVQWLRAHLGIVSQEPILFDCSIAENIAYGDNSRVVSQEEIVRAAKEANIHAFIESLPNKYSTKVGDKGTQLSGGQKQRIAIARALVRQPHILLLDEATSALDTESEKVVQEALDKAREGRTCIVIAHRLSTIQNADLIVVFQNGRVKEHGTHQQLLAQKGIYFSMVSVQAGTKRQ
# [3] = molecular target: T1, BCRP (Homo sapiens, UniProt Q9UNQ0); conditions: efflux transporter; cited from earlier work
# T1 sequence (Q9UNQ0 1-655): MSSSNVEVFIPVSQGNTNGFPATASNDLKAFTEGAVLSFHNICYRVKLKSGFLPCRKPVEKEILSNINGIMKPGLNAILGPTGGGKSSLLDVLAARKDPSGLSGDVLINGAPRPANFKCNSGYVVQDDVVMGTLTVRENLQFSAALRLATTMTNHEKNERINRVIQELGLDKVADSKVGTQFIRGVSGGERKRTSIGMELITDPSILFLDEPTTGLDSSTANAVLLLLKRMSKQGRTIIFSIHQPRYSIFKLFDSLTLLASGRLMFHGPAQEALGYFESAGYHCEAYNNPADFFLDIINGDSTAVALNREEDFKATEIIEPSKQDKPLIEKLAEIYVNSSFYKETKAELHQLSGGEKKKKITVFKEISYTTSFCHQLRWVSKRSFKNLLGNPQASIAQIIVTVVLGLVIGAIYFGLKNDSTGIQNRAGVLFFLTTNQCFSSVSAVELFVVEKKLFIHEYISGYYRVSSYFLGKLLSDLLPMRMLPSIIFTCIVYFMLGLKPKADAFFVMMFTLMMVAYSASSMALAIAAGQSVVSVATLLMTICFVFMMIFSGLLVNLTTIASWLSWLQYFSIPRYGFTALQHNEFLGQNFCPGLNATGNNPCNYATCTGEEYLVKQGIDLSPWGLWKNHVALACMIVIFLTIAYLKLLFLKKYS
# [4] = tested on: CYP; experiment: CYP inhibition
# [5] = Phase 2a open-label combination study, pharmacokinetics; format: in vivo, human
# Description: A randomized, Phase 2a, open-label study was carried out to evaluate the safety, pharmacokinetics and efficacy of the combination of Compound (III), Odalasvir and Simeprevir in Genotype 1 treatment-naïve subjects with chronic hepatitis C. Other treatment-naïve subjects included Genotype 2, 3, 4, 5 and 6. The aim of the study was to determine the efficacy, pharmacokinetics (PK), and safety of Compound (III)+Odalasvir±SMV in HCV-infected subjects. […] Efficacy, PK and safety evaluations were conducted during and through 24 weeks post dosing. Up to 15 cohorts were enrolled; data was generated from cohorts that have completed dosing.
# [6] = molecular target: MRP2 (Homo sapiens, UniProt Q92887); conditions: efflux transporter; cited from earlier work
# MRP2, sequence (Q92887 whole entry): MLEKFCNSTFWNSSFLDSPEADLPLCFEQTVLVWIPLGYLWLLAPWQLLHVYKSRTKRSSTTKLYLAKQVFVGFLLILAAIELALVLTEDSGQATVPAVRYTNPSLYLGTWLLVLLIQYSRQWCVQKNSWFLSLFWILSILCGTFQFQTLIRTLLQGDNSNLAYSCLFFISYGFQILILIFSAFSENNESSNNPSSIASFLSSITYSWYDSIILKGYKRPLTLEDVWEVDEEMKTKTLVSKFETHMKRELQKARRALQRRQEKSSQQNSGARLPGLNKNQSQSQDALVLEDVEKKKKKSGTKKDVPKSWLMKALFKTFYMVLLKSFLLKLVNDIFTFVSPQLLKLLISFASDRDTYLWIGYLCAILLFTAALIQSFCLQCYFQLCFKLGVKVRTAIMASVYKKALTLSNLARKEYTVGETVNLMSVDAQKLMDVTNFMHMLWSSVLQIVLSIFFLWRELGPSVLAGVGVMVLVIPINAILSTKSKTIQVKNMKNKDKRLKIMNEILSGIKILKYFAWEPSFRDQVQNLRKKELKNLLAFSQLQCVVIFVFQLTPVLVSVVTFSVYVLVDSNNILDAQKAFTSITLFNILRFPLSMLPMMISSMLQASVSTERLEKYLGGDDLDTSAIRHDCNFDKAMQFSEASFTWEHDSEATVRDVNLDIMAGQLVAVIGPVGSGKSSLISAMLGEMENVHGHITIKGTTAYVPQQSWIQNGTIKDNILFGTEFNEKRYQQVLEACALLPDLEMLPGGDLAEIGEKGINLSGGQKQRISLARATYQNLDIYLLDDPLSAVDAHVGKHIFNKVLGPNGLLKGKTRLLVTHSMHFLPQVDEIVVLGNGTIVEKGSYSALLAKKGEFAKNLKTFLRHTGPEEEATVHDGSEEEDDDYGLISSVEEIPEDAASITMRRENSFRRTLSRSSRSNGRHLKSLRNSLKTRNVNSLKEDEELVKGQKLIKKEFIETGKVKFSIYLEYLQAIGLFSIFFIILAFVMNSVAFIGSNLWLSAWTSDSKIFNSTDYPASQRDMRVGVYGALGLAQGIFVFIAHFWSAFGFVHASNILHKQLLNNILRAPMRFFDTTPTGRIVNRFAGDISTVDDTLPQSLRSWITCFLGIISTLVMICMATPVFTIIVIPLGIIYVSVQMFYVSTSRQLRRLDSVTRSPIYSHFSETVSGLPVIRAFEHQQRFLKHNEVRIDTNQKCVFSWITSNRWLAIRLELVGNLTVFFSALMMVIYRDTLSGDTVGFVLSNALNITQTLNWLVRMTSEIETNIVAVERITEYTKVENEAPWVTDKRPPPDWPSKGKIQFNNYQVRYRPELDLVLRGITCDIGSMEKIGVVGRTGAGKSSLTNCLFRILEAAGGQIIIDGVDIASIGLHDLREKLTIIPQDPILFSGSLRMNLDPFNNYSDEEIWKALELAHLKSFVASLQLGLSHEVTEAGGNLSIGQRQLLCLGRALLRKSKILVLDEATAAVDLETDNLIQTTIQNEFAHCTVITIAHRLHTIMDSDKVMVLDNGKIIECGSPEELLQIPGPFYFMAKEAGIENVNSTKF
# [7] = molecular target: BSEP (Homo sapiens, UniProt O95342); conditions: efflux transporter; cited from earlier work
# [8] = molecular target: MRP2/3 (Homo sapiens, UniProt O15438); conditions: efflux transporter; cited from earlier work
# MRP2/3, sequence (O15438 whole entry): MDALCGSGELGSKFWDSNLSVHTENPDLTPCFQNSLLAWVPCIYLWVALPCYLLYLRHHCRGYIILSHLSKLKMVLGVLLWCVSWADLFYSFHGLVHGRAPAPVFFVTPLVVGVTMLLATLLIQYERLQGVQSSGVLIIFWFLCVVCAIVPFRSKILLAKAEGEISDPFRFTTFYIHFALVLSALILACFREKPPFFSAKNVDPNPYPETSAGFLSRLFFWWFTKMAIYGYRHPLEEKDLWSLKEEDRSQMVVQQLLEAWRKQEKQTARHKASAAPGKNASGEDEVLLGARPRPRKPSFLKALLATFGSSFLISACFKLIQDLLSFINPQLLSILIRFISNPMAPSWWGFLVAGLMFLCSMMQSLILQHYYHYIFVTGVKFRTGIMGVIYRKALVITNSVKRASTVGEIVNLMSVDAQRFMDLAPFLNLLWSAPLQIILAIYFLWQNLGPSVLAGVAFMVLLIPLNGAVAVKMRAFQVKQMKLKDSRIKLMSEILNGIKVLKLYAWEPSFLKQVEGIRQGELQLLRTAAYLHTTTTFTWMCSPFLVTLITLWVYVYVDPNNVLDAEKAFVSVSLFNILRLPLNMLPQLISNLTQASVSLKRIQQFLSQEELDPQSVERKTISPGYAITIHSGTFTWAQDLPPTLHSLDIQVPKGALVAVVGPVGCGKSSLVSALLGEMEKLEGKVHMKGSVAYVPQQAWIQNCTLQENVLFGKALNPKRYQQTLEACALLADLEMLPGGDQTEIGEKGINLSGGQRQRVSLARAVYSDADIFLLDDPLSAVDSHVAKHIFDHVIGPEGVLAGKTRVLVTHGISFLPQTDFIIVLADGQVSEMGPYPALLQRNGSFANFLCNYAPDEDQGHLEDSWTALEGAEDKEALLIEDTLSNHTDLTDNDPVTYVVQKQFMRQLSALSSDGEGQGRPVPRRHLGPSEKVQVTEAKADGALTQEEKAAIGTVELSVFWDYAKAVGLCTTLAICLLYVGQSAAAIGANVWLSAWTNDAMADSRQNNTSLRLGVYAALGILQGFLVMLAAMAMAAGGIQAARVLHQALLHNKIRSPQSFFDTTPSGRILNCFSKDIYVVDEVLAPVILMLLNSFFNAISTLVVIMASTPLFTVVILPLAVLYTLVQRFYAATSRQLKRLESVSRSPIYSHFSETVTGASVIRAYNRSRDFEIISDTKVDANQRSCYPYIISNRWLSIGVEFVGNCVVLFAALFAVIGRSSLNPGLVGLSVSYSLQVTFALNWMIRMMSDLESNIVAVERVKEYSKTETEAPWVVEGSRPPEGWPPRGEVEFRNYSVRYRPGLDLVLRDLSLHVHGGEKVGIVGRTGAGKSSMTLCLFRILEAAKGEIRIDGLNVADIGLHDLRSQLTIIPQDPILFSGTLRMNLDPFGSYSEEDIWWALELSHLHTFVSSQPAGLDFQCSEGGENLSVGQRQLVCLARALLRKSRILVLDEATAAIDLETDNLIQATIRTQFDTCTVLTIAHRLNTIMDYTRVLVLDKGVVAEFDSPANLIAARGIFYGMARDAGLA
SMILES,"t1/2term ([1]; Arm 1 (reference): single agents, single oral dose) [min]","t1/2term ([1]; Arm 2: FDC02, single oral dose) [min]","t1/2term ([1]; Arm 3: FDC04, single oral dose) [min]","t1/2term ([1]; Arm 4: FDC01, single oral dose) [min]","Tmax ([1]; human, in vivo, Arm 1 (reference): single agents, single oral dose, median [range]) [min]",in vitro inhibition of P-gp [2],in vitro inhibition of BCRP [3],IC50 [4] [µM],decrease of exposure on reducing Odalasvir dosing from once a day to every other day ([5]; 50 mg),"observed exposure in Cohort 1 / group (i) versus anticipated ([5]; Compound (III) 400 mg, ODV 50 mg QD, SMV 100 mg QD)",in vitro inhibition of MRP2 [6],in vitro inhibition of BSEP [7],in vitro inhibition of MRP3 [8]
CC(C)OC(=O)C(C)N[P@](=O)(OC[C@@]1(F)O[C@@H](n2ccc(=O)[nH]c2=O)[C@](C)(O)[C@@H]1O)Oc1ccccc1 (stereo in doubt) [Compound (III)],36 ± 6,42 ± 12,42 ± 6,36 ± 6,120,no in vitro inhibition,no in vitro inhibition,> 26,–,–,–,–,–
"COC(=O)N[C@H](C(=O)N1[C@H](c2nc3cc(-c4cc5ccc4CCc4ccc(c(-c6ccc7[nH]c([C@@H]8C[C@@H]9CCCC[C@@H]9N8C(=O)[C@@H](NC(=O)OC)C(C)C)nc7c6)c4)CC5)ccc3[nH]2)C[C@@H]2CCCC[C@@H]21)C(C)C [ODV, methyl [(2S)-1-[(2S,3aS,7aS)-2-[6-[11-[2-[(2S,3aS,7aS)-1-[(2S)-2-[(methoxycarbonyl)amino]-3-methylbutanoyl]octahydro-1H-indol-2-yl]-1H-benzimidazol-6-yl]tricyclo[8.2.2.2^4,7]hexadeca-1(12),4,6,10,13,15-hexaen-5-yl]-1H-benzimidazol-2-yl]octahydro-1H-indol-1-yl]-3-methyl-1-oxobutan-2-yl]carbamate]",–,–,–,–,–,moderate inhibition,no inhibition,–,proportionally,higher than anticipated,no inhibition,no inhibition,no inhibition
